According to US8921376B2, “Pyrrolopyridines useful as inhibitors of protein kinase” (Vertex Pharmaceuticals Incorporated, priority 2005, dated 2014):

Columns and labels:
Assay type in all cases: biochemical
ROCK I = ROCK I (Homo sapiens, UniProt Q13464); assay: ROCK-I inhibition assay (radioactive enzyme assay, MBP substrate)
How it was run: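 Human ROCK at 5 nM phosphorylated 27 μM myelin basic protein with 13 μM [γ-33P]ATP (final) in HEPES pH 7.5, MgCl2, NaCl, DTT and 1.5% DMSO. Reactions ran 2 h at room temperature before TCA quench and filter-plate scintillation counting. After background subtraction, data were fit to give Ki(app).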

JAK2 = JAK2 (Homo sapiens, UniProt O60674); assay: JAK2 inhibition assay (as Example 3 with JAK-2 enzyme)
JAK2, sequence (O60674 whole entry): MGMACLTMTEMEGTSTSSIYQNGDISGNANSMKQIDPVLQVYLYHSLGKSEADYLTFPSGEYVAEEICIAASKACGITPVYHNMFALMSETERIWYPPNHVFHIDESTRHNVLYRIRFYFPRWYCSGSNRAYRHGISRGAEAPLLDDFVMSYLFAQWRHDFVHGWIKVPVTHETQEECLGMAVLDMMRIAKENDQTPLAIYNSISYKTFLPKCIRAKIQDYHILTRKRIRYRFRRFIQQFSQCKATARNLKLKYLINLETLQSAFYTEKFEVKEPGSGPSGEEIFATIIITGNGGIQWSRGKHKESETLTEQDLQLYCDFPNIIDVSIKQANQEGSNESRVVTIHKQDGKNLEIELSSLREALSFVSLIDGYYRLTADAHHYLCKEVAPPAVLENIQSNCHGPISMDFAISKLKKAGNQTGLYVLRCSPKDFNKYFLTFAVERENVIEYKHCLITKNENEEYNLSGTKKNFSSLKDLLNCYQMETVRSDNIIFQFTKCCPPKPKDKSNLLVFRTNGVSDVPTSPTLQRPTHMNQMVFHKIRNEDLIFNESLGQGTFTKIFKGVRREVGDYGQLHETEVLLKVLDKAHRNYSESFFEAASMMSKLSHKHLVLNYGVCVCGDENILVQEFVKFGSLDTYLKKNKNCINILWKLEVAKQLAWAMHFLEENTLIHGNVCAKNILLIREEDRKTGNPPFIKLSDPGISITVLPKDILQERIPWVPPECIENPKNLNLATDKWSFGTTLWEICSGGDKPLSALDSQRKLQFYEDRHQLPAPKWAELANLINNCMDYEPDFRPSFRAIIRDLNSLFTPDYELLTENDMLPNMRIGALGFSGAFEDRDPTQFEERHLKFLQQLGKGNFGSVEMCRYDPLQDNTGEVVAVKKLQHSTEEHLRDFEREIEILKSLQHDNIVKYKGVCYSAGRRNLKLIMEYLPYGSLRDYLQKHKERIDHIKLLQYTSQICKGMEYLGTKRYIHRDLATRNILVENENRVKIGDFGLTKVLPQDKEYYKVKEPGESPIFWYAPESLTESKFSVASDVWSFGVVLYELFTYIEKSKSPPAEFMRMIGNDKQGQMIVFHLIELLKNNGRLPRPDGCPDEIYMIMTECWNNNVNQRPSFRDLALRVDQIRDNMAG
How it was run: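 Radiometric JAK2 kinase assay: poly(Glu)4Tyr substrate at final 15 μM, ATP at final 12 μM with [33P]; buffer 100 mM HEPES pH 7.4, 1 mM DTT, 10 mM MgCl2, 25 mM NaCl, 0.01% BSA. 20 min at 25 °C, TCA-stopped, 33P incorporation counted after filter capture.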

JAK3 = target: T1, JAK3 (Homo sapiens, UniProt P52333); assay: JAK3 inhibition assay (33P incorporation into poly(Glu)4Tyr)
T1 sequence (P52333 1-1124): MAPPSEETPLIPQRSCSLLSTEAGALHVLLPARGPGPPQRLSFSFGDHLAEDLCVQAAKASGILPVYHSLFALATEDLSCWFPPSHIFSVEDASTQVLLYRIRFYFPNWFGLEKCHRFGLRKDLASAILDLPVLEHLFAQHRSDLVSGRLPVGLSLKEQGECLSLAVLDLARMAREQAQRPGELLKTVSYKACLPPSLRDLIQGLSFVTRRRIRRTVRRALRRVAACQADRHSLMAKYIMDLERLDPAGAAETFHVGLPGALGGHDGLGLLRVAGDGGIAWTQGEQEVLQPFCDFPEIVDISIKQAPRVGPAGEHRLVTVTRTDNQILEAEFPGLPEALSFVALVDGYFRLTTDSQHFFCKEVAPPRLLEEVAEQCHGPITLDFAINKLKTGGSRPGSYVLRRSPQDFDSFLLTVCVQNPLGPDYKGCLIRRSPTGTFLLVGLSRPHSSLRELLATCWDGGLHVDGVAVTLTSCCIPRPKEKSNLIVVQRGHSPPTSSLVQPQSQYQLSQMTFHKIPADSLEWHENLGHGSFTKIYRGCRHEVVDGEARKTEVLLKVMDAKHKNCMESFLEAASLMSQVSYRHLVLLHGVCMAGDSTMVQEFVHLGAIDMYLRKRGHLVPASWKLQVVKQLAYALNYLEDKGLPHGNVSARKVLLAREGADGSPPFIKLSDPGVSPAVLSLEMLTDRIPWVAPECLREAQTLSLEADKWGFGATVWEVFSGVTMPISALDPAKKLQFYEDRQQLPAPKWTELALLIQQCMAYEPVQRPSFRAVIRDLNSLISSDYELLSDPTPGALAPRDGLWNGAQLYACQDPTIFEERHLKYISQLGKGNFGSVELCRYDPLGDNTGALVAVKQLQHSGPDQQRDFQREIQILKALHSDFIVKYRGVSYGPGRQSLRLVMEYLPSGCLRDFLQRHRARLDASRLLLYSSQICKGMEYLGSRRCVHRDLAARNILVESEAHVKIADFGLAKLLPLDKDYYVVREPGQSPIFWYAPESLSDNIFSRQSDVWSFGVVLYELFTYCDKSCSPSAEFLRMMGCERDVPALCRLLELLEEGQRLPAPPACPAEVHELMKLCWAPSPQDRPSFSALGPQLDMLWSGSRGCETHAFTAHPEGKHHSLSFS
How it was run: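 Human JAK3 at 1 nM phosphorylated 1 μM poly(Glu)4Tyr using 5 μM [33P]ATP in HEPES pH 7.4 buffer with MgCl2, DTT and BSA. Reactions ran 20 min at 25° C. and were stopped with TCA. 33P incorporation was measured by scintillation after glass-fiber filter capture.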

[1] = Table 6, enzyme inhibition data (Ki)
[2] = enzyme inhibition, Ki(app), Table 5

ROCK I, sequence (Q13464 whole entry): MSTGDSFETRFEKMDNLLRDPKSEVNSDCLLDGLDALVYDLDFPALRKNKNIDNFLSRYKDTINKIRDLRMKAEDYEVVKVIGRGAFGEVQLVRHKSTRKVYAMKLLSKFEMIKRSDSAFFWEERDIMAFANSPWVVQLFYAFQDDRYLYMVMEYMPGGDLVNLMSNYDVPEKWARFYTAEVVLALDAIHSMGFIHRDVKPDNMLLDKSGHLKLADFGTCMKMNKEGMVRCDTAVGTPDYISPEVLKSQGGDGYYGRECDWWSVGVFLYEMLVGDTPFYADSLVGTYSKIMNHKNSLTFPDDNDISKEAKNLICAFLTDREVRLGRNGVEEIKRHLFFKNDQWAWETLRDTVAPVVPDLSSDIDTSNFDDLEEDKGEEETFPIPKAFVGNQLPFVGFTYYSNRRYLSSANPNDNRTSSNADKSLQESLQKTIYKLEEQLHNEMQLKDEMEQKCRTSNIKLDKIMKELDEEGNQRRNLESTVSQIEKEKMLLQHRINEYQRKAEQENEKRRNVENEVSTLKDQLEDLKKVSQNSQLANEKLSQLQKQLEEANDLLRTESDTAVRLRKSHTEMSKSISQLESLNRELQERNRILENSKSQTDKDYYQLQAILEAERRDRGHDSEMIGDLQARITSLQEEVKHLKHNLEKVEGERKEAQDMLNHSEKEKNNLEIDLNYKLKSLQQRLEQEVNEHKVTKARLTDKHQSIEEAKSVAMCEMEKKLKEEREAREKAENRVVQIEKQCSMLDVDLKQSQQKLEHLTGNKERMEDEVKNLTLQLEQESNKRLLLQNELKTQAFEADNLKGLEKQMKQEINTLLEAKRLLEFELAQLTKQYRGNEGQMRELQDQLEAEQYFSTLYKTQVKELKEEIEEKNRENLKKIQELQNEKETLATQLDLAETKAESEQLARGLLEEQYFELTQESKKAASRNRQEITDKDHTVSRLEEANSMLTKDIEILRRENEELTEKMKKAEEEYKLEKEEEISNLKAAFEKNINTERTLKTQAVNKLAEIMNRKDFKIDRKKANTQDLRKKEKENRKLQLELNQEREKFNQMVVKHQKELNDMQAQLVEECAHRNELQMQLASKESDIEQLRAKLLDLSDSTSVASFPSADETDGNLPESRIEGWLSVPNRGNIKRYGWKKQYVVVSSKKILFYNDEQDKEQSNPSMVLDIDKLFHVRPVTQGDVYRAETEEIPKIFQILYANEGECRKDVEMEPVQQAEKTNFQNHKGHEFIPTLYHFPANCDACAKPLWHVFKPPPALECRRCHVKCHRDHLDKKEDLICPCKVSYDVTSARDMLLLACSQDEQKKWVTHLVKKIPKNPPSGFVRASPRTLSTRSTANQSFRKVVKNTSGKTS

Compound | Ki (ROCK I; [1]) [nM] | Ki (JAK2; [1]) [nM] | Ki (JAK3; [1]) [nM] | Ki (ROCK I; [2]) [nM] | Ki (JAK2; enzyme inhibition, Table 5) [nM] | Ki (JAK3; enzyme inhibition, Table 5) [nM]
C[C@@H]1CCC[C@H](C)N1C(=O)c1csc(-c2ccnc3[nH]ccc23)n1 [compound 421] | < 500 | < 500 | < 500 | – | – | –
Clc1cnc2[nH]ccc2c1-c1cccc(NC2CCCC2)n1 [compound 32, 6-(5-Chloro-1H-pyrrolo[2,3-b]pyridin-4-yl)-N-cyclopentylpyrdin-2-anine] | – | – | – | 500 to 5000 | 500 to 5000 | > 5000
CC1CC(Nc2c(Cl)cnc3[nH]ccc23)CC(C)(C)C1 (stereo not drawn) [compound 162] | 500 to 5000 | < 500 | < 500 | – | – | –
COCCN(CCOC)C(=O)c1cc(-c2ccnc3[nH]ccc23)c[nH]1 [compound 308] | 500 to 5000 | < 500 | < 500 | – | – | –
CCC(=O)N1CC[C@H](Nc2c(Cl)cnc3[nH]ccc23)C1 [compound 168] | > 4000 | < 500 | 500 to 5000 | – | – | –
O=S(=O)(C1CC1)N1CC[C@@H](Nc2c(Cl)cnc3[nH]ccc23)C1 [compound 183] | > 4000 | < 500 | < 500 | – | – | –
Oc1ccccc1-c1ccnc2[nH]ccc12 [compound 248] | 500 to 5000 | 500 to 5000 | 500 to 5000 | – | – | –
CCN(Cc1ccncc1)C(=O)c1cc(-c2c(Cl)cnc3[nH]ccc23)c[nH]1 [compound 353] | 500 to 5000 | < 500 | < 500 | – | – | –
C1=C(c2ccnc3[nH]ccc23)CCCC1 [compound 30, 4-Cyclohexenyl-1H-pyrrolo[2,3b]pyridine] | – | – | – | < 500 | < 500 | < 500
OC1CCN(c2cccc(-c3ccnc4[nH]ccc34)n2)C1 (stereo not drawn) [compound 51] | – | – | – | 500 to 5000 | 500 to 5000 | 500 to 5000
CCCN(CC1CC1)C(=O)c1cc(-c2c(Cl)cnc3[nH]ccc23)c[nH]1 [compound 334] | 500 to 5000 | < 500 | < 500 | – | – | –
CC(C)[C@H](C(=O)NCC(F)(F)F)n1ccc2cnc(-c3ccnc4[nH]ccc34)nc21 [compound 425] | > 4000 | < 500 | < 500 | – | – | –
CC(C)(C)OC(=O)N1CC=C(c2ccnc3[nH]ccc23)CC1 [compound 44] | – | – | – | < 500 | < 500 | < 500
Cc1cc(C)cc(-c2ccnc3[nH]ccc23)c1 [compound 112, 4-(3,5-Dimethyl-phenyl)-1H-pyrrolo[2,3-b]pyridine] | – | – | – | < 500 | < 500 | 500 to 5000
CCOc1ccc(Cl)cc1-c1ccnc2[nH]ccc12 [compound 237] | 500 to 5000 | 500 to 5000 | > 5000 | – | – | –
CC(C)N(C)c1cccc(-c2ccnc3[nH]ccc23)n1 [compound 61, N-Isopropyl-N-methyl-6-(1H-pyrrolo[2,3-b]pyridin-4-yl)pyridin-2-amine] | – | – | – | 500 to 5000 | < 500 | 500 to 5000
O=C(CNc1nc(-c2ccnc3[nH]ccc23)ncc1F)NCC(F)(F)F [compound 192] | > 4000 | 500 to 5000 | < 500 | – | – | –
CS(=O)(=O)N1CC[C@H](Nc2c(Cl)cnc3[nH]ccc23)C1 [compound 185] | > 4000 | < 500 | < 500 | – | – | –
CCN(Cc1ccccc1)C(=O)c1cc(-c2c(F)cnc3[nH]ccc23)c[nH]1 [compound 395] | 500 to 5000 | < 500 | < 500 | – | – | –
O=C(CC(F)(F)F)N1CC[C@@H](Nc2c(Cl)cnc3[nH]ccc23)C1 [compound 189] | > 4000 | < 500 | 500 to 5000 | – | – | –
CC(C)(C(=O)CC#N)c1cccc(-c2ccnc3[nH]ccc23)n1 [compound 125, 4-(6-(1H-pyrrolo[2,3-b]pyridin-4-yl)pyridin-2-yl)-4-methyl-3-oxopentanitrile] | – | – | – | < 500 | < 500 | < 500
N#CCCNC(=O)c1cc(-c2ccnc3[nH]ccc23)c[nH]1 [compound 296] | < 500 | < 500 | < 500 | – | – | –

Compound | Ki (ROCK I; [1]) [nM] | Ki (JAK2; [1]) [nM] | Ki (JAK3; [1]) [nM] | Ki (ROCK I; [2]) [nM] | Ki (JAK2; enzyme inhibition, Table 5) [nM] | Ki (JAK3; enzyme inhibition, Table 5) [nM]
CC(=O)N1CCN(c2cccc(-c3ccnc4[nH]ccc34)n2)CC1 [compound 26, 1-(4-(6-(1H-pyrrolo[2,3-b]pyridin-4-yl)pyridin-2-yl)piperazin-1-yl)ethanone] | – | – | – | 500 to 5000 | 500 to 5000 | 500 to 5000
CC1CC=C(c2c(Cl)cnc3[nH]ccc23)C1C (stereo not drawn) [compound 90] | – | – | – | 500 to 5000 | < 500 | < 500
N#CCC(=O)N1CCCN(c2cccc(-c3ccnc4[nH]ccc34)n2)CC1 [compound 19] | – | – | – | 500 to 5000 | < 500 | 500 to 5000
N#CCCN(CC1CC1)C(=O)c1csc(-c2ccnc3[nH]ccc23)n1 [compound 409] | < 500 | < 500 | < 500 | – | – | –
Nc1ccccc1-c1c(Cl)cnc2[nH]ccc12 [compound 129] | – | – | – | 500 to 5000 | > 5000 | > 5000
N#CCNC(=O)c1cc(-c2ccnc3[nH]ccc23)c[nH]1 [compound 295] | < 500 | < 500 | < 500 | – | – | –
Clc1ccccc1Nc1c(Cl)cnc2[nH]ccc12 [compound 158] | 500 to 5000 | < 500 | < 500 | – | – | –
CC(C)(C#N)c1cccc(-c2ccnc3[nH]ccc23)n1 [compound 71, 2-(6-(1H-pyrrolo[2,3-b]pyridin-4-yl)pyridin-2-yl)-2-methylpropanetrile] | – | – | – | < 500 | < 500 | < 500
CCN(Cc1ccccn1)C(=O)c1ccc(-c2ccnc3[nH]ccc23)s1 [compound 318] | < 500 | < 500 | < 500 | – | – | –
N#CCCN(CCC(F)(F)F)C(=O)c1cc(-c2c(F)cnc3[nH]ccc23)c[nH]1 [compound 384] | 500 to 5000 | < 500 | < 500 | – | – | –
CN(C)C1CCN(C(=O)c2cc(-c3c(Cl)cnc4[nH]ccc34)c[nH]2)C1 (stereo not drawn) [compound 355] | > 4000 | < 500 | 500 to 5000 | – | – | –
CCC(C)CNc1cccc(-c2ccnc3[nH]ccc23)n1 (stereo not drawn) [compound 72, N-(2-Methylbutyl)-6-(1H-pyrrolo[2,3-b]pyridin-4-yl)pyridin-2-amine] | – | – | – | 500 to 5000 | < 500 | 500 to 5000
Clc1ccc(-c2c(Cl)cnc3[nH]ccc23)s1 [compound 141] | > 4000 | < 500 | < 500 | – | – | –
C#CCOC(=O)N1CCCC(Nc2c(Cl)cnc3[nH]ccc23)C1 (stereo not drawn) [compound 172] | 500 to 5000 | < 500 | < 500 | – | – | –
O=C(c1csc(-c2ccnc3[nH]ccc23)n1)N1CC=CC1 [compound 415] | < 500 | < 500 | 500 to 5000 | – | – | –
CC(C)CNC(=O)c1cc(-c2ccnc3[nH]ccc23)c[nH]1 [compound 291] | < 500 | < 500 | < 500 | – | – | –
Clc1cc(-c2ccnc3[nH]ccc23)ccn1 [compound 39, 4-(2-Chloro-pyridin-4-yl)-1H-pyrrolo[2,3-b]pyridine] | – | – | – | 500 to 5000 | 500 to 5000 | 500 to 5000
Fc1cccc(-c2ccnc3[nH]ccc23)n1 [compound 50, 4-(6-fluoropyridin-2-yl)-1H-pyrrolo[2,3-b]pyridine] | – | – | – | 500 to 5000 | 500 to 5000 | 500 to 5000
O=C(c1cc(-c2c(Cl)cnc3[nH]ccc23)c[nH]1)N1CCCC1C(F)(F)F (stereo not drawn) [compound 358] | 500 to 5000 | < 500 | < 500 | – | – | –
O=C(NCC(F)(F)F)c1ccccc1-c1ccnc2[nH]ccc12 [compound 253] | > 4000 | > 5000 | > 5000 | – | – | –
C[C@@H](Nc1ccnc(-c2ccnc3[nH]ccc23)n1)C(=O)NCC(F)(F)F [compound 202] | > 4000 | 500 to 5000 | < 500 | – | – | –
